Patent EP0663826B1, “AMINO ACIDS CONTAINING PARENTERAL FORMULATIONS FOR THE TREATMENT OF HYPOTENSION AND RELATED PATHOLOGIES” (BOARD OF REGENTS THE UNIVERSITY OF TEXAS SYSTEM, priority 1991, dated 1993)

System: endotoxin-induced shock in dogs
Test: Endotoxin-induced hypotension in dogs (with nitroglycerin and control dogs)
Format: in vivo
Description: Animals: Studies were carried out on 12 conditioned mongrel dogs (9 males and 3 females) weighing 22-32 kg (avg=25.3 kg). Animal care was in accordance with the recommendations of the American Association for Accreditation of Laboratory Animal Care, and met all standards prescribed by the Guide for the Care and Use of Laboratory Animals (Guide for the Care and Use of Laboratory Animals (1978) Dept. of Health, Education and Welfare, Washington, D.C. (Publ. No. 78-23). Animal protocols were approved by The University of Texas Animal Welfare committee. The dogs were fasted overnight prior to the day of experimentation. They were anesthetized with sodium pentobarbital (25 mg/kg i.v.). Dogs were then endotracheally intubated and ventilated with a piston-driven respirator (Harvard instruments) using room air at a tidal volume of 15 ml/kg and at a rate of 12 to 14 breaths per minute, adjusted to achieve a normal arterial pH and pCO2 (Instrumentation Laboratories lL1302 pH/Blood Gas Analyzer). Catheters were placed percutaneously into the femoral and pulmonary arteries; In the latter, a flow-directed thermal-dilation catheter was used (Abbott Critical Care Systems).
Physiologic measurements: Mean SAP and heart rate were continuously monitored (Parametron 7048 Monitoring System, Roche) and stored on a magnetic disk using an analog-to-digital converter (Scientific Solutions, Inc.). Cardiac output (CO) was determined as the mean of six measurements by thermal-dilution. Systemic vascular resistance was calculated as (SAP X80)/CO and expressed as dynes-sec/cm^5 (kg/s·cm^4).
Protocol: After the blood pressure and heart rate stabilized, endotoxin (40 µg/kg, in 10 ml of phosphate-buffered saline (PBS), pH 7.4) was infused i.v. over 2 minutes. This dose of endotoxin typically induces severe and often lethal cardiovascular collapse in the dog. Blood pressure was monitored, and when either SAP fell below 60 mm Hg or a stable nadir in systemic arterial pressure (SAP) was maintained for 10 minutes, L-NMA was administered (20 mg/kg in 5 ml of PBS i.v. over 1 min.). In most experiments, L-arginine (400 mg/kg in 20 ml PBS) was administered ten minutes later by i.v. infusion over 2 minutes. In control experiments, dogs without prior exposure to endotoxin received L-NMA alone. To simulate the hypotension observed in dogs receiving endotoxin, one group of dogs received a continuous i.v. infusion of nitroglycerin (2 mg/ml) at a rate adjusted to maintain the SAP at 60-70 mm Hg. Nitroglycerin-treated dogs then received L-NMA (20 mg/kg) and 20 minutes later L-arginine was administered ([…]).
Statistics: Statistical significance was evaluated using Student's test and either a one-tailed or two-tailed analysis as appropriate for comparisons.

N=C(N)NCCC[C@H](N)C(=O)O [L-arginine]
ΔSAP after L-arginine (Figure 6 dog, endotoxin and 2 doses L-NMA): -77 mm Hg
Cardiac Output (Study 1: Endotoxin-treated dogs (n=4), means ± S.E., same sequence, baseline 2.99 ± 0.32): 2.99 ± 0.32 L/min
Heart Rate (Study 1: Endotoxin-treated dogs (n=4), means ± S.E., same sequence, baseline 119.5 ± 6.0): 119.5 ± 6.0 beats/min
Systemic Vascular Resistance (Study 1: Endotoxin-treated dogs (n=4), means ± S.E., same sequence, baseline 3565 ± 454): 3565 ± 454 dynes-sec/cm^5
Systemic Arterial Pressure (Study 1: Endotoxin-treated dogs (n=4), means ± S.E., sequence endotoxin 40 µg/kg, L-NMA 20 mg/kg, 10 min later L-arginine 400 mg/kg (measured 2 min later), baseline 128.3 ± 9.4): 128.3 ± 9.4 mmHg
Systemic Vascular Resistance (Study 1: Endotoxin-treated dogs (n=4), means ± S.E., value in brackets): 3.565 ± 0.454 Kg/s·cm^4
Cardiac Output (Study 2: Nitroglycerin-treated dogs (n=3), means ± S.E., baseline 3.14 ± 0.21): 5.15 ± 1.08 L/min
Heart Rate (Study 2: Nitroglycerin-treated dogs (n=3), means ± S.E., baseline 143.7 ± 12.1): 148.7 ± 19.9 beats/min
Systemic Vascular Resistance (Study 2: Nitroglycerin-treated dogs (n=3), means ± S.E., baseline 3294 ± 74): 1088 ± 491 dynes-sec/cm^5
Systemic Arterial Pressure (Study 2: Nitroglycerin-treated dogs (n=3), means ± S.E., continuous nitroglycerin (2 mg/ml) titrated to SAP 65 mm Hg, then L-NMA 20 mg/kg, then L-arginine, baseline 129.3 ± 10.2): 57.0 ± 13.0 mmHg
Systemic Vascular Resistance (Study 2: Nitroglycerin-treated dogs (n=3), value in brackets): 1.088 ± 0.491 Kg/s·cm^4
effect on the pressor effect of L-NMA (control dogs, L-arginine 400 mg/kg): fully reversed
